Data from US9475766B2, “Substituted aromatic sulfur compounds and methods of their use” (Cephalon, Inc., priority 2011, dated 2016).

Experiments:
Assay type in all cases: cell-based
[1] = test system: A2780 ovarian cancer cell line; assay: Cell survival and adhesion assay (luciferase), A2780; conditions: 5 hours, A2780 cells overlayed onto human mesothelial cell monolayers, read-out: relative reduction in Luciferase activity, A2780 10 μM
Description: (§1) SU86 is a pancreatic cancer cell line. HT29 is a colon cancer cell line. BxPC3 is a pancreatic cell line. A2780 is an ovarian cancer cell line.
(§2) BxPc-3 and Su.86.86 pancreatic and HT-29 colon and A2780 ovarian cancer cell lines were purchased from ATCC and cultured in DMEM supplemented with 10% fetal bovine serum, glutamine, penicillin, and streptomycin. All cells were cultured at 37° C. in a humidified incubator in a 5% CO2 atmosphere. The cancer cell lines were transduced with a retrovirus containing pLuc-puro, a constitutive luciferase reporter and selected in […] media. Transient transfection of a full-length human c-FLIP construct in the vector pcDNA3 was performed as previously described. Scaife et al. Cancer Research 2002, 62: 6870-78.
(§3) Pancreatic cancer cell cultures (BxPc-3 and Su.86.86) and colon cancer (HT-29) and ovarian cancer (A2780) cells that were stably transfected with a firefly luciferase construct were transiently suspended with trypsin-PBS. 10^5 cells were overlayed onto confluent monolayers of human mesothelial cells in 96-well plates while simultaneously adding various concentrations of compounds of the invention or DMSO for 5 hours. The non-adherent cells were carefully washed away from the wells twice with 100 μl/well of blocking buffer (1% BSA in PBS) and twice again with ice-cold PBS. Adherent and surviving cells were detected by luciferase activity in a luminometer as follows. The cells were lysed in 0.1% TritonX-100, 25 mM Gly-Gly (7.8), MgSO4, 4 mM EGTA, 1 mM DTT. The total protein concentration was normalized with lysis buffer. 50 μl of cell lysate was added per well of a 96-well microtiter plate. 50 μl of luciferin substrate (Promega) was added per well and then the light output determined in a luminometer.

[2] = test system: BxPC3 pancreatic cell line; assay: Cell survival and adhesion assay (luciferase), BxPC3; conditions: BXPC-3, 5 hours, BxPC3 cells overlayed onto human mesothelial cell monolayers, read-out: relative reduction in Luciferase activity, BxPC3 10 μM
Description: as §1, §2, §3

[3] = test system: SU86 pancreatic cancer cell line (Su.86.86); assay: Cell survival and adhesion assay (luciferase), SU86; conditions: 5 hours, SU86 cells overlayed onto human mesothelial cell monolayers, read-out: relative reduction in Luciferase activity, SU86 10 μM
Description: as §1, §2, §3

Structure (SMILES) | inhibition at 10 µM [1] | inhibition at 10 µM [2] | inhibition at 10 µM [3]
N#C/C=C/S(=O)(=O)c1ccc(C2(C(=O)NC3CCCCC3)CCC2)cc1 [Example 77, 1-[4-((E)-2-Cyano-ethenesulfonyl)-phenyl]-cyclobutanecarboxylic acid cyclohexylamide] | > 85% | 50 to 85% | 
N#C/C=C/S(=O)(=O)c1ccc(C2(C(=O)NC3CCCCC3)CCOCC2)cc1 [Example 83, 4-[4-((E)-2-Cyano-ethenesulfonyl)-phenyl]-tetrahydro-pyran-4-carboxylic acid cyclohexylamide] | < 10% | 10 to 50% | 
N#C/C=C/S(=O)(=O)c1ccc(C2(C(=O)Nc3ccccc3)CCC2)cc1 [Example 75, 1-[4-((E)-2-Cyano-ethenesulfonyl)-phenyl]-cyclobutanecarboxylic acid phenylamide] | 50 to 85% | > 85% | 
C#CCNC(=O)C(C)(C)c1ccc(S(=O)(=O)/C=C/C#N)cc1 [Example 19, 2-[4-((E)-2-Cyano-ethenesulfonyl)-phenyl]-N-prop-2-ynyl-isobutyramide] | 10 to 50% | 10 to 50% | 10 to 50%
N#C/C=C/S(=O)(=O)c1ccc(C2(C(=O)NCc3ccc(Cl)cc3)CCC2)cc1 [Example 76, 1-[4-((E)-2-Cyano-ethenesulfonyl)-phenyl]-cyclobutanecarboxylic acid 4-chloro-benzylamide] | > 85% | 50 to 85% | 
CC(C)(C(=O)NCc1cccc(F)c1)c1ccc(S(=O)(=O)/C=C/C#N)cc1 [Example 39, 2-[4-((E)-2-Cyano-ethenesulfonyl)-phenyl]-N-(3-fluoro-benzyl)-isobutyramide] |  | 10 to 50% | 
N#C/C=C/S(=O)(=O)c1ccc(C2(C(=O)NCc3ccc(Cl)cc3)CCOCC2)cc1 [Example 85, 4-[4-((E)-2-Cyano-ethenesulfonyl)-phenyl]-tetrahydro-pyran-4-carboxylic acid 4-chloro-benzylamide] | 50 to 85% | 50 to 85% | 
CCNc1nnc(C(C)(C)c2ccc(S(=O)(=O)/C=C/C#N)cc2)o1 [Example 48, (E)-3-{4-[1-(5-Ethylamino-[1,3,4]oxadiazol-2-yl)-1-methyl-ethyl]-benzenesulfonyl}-acrylonitrile] | 10 to 50% | < 10% | < 10%
CC(C)(C(=O)NC1CCCCC1)c1cccc(S(=O)(=O)/C=C/C#N)c1 [Example 35, 2-[3-((E)-2-Cyano-ethenesulfonyl)-phenyl]-N-cyclohexyl-isobutyramide] |  | 50 to 85% | 
C[C@H](NC(=O)C(C)(C)c1ccc(S(=O)(=O)/C=C/C#N)cc1)c1ccccc1 [Example 16, 2-[4-((E)-2-Cyano-ethenesulfonyl)-phenyl]-N—((S)-1-phenyl-ethyl)-isobutyramide] | > 85% | 50 to 85% | 50 to 85%
N#C/C=C/S(=O)(=O)c1ccc(C2(C(=O)Nc3ccccc3)CCOCC2)cc1 [Example 84, 4-[4-((E)-2-Cyano-ethenesulfonyl)-phenyl]-tetrahydro-pyran-4-carboxylic acid phenylamide] | 10 to 50% | 10 to 50% | 
N#C/C=C/S(=O)(=O)c1ccc(C2(C(=O)O)CCC2)cc1 [Example 74, 1-[4-((E)-2-Cyano-ethenesulfonyl)-phenyl]-cyclobutanecarboxylic acid] | < 10% | < 10% | 
Cc1ccc(O)c(NC(=O)COc2ccc(S(=O)(=O)/C=C/C#N)cc2C(C)(C)C)c1 [Example 79, 2-[2-tert-Butyl-4-((E)-2-cyano-ethenesulfonyl)-phenoxy]-N-(2-hydroxy-5-methyl-phenyl)-acetamide] | > 85% | > 85% | 
CC(C)(c1ccc(S(=O)(=O)/C=C/C#N)cc1)c1nc2ccccc2[nH]1 [Example 49, (E)-3-{4-[1-(1H-Benzimidazol-2-yl)-1-methyl-ethyl]-benzenesulfonyl}-acrylonitrile] | < 10% | < 10% | < 10%
CC(C)(C)OC(=O)NCCOCCOCCNC(=O)C(C)(C)c1ccc(S(=O)(=O)/C=C/C#N)cc1 [Example 34, {2-[2-(2-{2-[4-((E)-2-Cyano-ethenesulfonyl)-phenyl]-2-methyl-propionylamino}-ethoxy)-ethoxy]-ethyl}-carbamic acid tert-butyl ester] |  | < 10% | 
CN(Cc1ccccc1)C(=O)C(C)(C)c1ccc(S(=O)(=O)/C=C/C#N)cc1 [Example 22, N-Benzyl-2-[4-((E)-2-cyano-ethenesulfonyl)-phenyl]-N-methyl-isobutyramide] | > 85% | > 85% | 50 to 85%
N#C/C=C/S(=O)(=O)c1ccc(C2(C(=O)NC3CCCCC3)CC2)cc1 [Example 68, 1-[4-((E)-2-Cyano-ethenesulfonyl)-phenyl]-cyclopropanecarboxylic acid cyclohexylamide] | > 85% | 50 to 85% | 
CC(C)(C(=O)NCc1ccc(N)cc1)c1ccc(S(=O)(=O)/C=C/C#N)cc1 [Example 38, N-(4-Amino-benzyl)-2-[4-((E)-2-cyano-ethenesulfonyl)-phenyl]-isobutyramide] |  | 10 to 50% | 
CC(C)(C(=O)NCCc1ccccc1)c1ccc(S(=O)(=O)/C=C/C#N)cc1 [Example 24, 2-[4-((E)-2-Cyano-ethenesulfonyl)-phenyl]-N-phenethyl-isobutyramide] | > 85% | 50 to 85% | 50 to 85%
CC(C)(c1ccc(S(=O)(=O)/C=C/C#N)cc1)c1nnc(Nc2ccccc2)o1 [Example 47, (E)-3-{4-[1-Methyl-1-(5-phenylamino-[1,3,4]oxadiazol-2-yl)-ethyl]-benzenesulfonyl}-acrylonitrile] | 50 to 85% | 50 to 85% | 10 to 50%
COc1cccc(NC(=O)C(C)(C)c2cccc(S(=O)(=O)/C=C/C#N)c2)c1 [Example 36, 2-[3-((E)-2-Cyano-ethenesulfonyl)-phenyl]-N-(3-methoxy-phenyl)-isobutyramide] |  | 50 to 85% | 
CC(C)(C(=O)NCc1ccc(-n2cccn2)cc1)c1ccc(S(=O)(=O)/C=C/C#N)cc1 [Example 21, 2-[4-((E)-2-Cyano-ethenesulfonyl)-phenyl]-N-(4-pyrazol-1-yl-benzyl)-isobutyramide] | 50 to 85% | 50 to 85% | 50 to 85%
C[C@@H](NC(=O)C(C)(C)c1ccc(S(=O)(=O)/C=C/C#N)cc1)c1ccccc1 [Example 17, 2-[4-((E)-2-Cyano-ethenesulfonyl)-phenyl]-N—((R)-1-phenyl-ethyl)-isobutyramide] | > 85% | 50 to 85% | 50 to 85%
CC(C)(C(=O)NCc1ccc(F)cc1)c1cccc(S(=O)(=O)/C=C/C#N)c1 [Example 37, 2-[3-((E)-2-Cyano-ethenesulfonyl)-phenyl]-N-(4-fluoro-benzyl)-isobutyramide] |  | 50 to 85% | 
CC(C)(C(=O)NCc1ccc(F)cc1)c1ccc(S(=O)(=O)/C=C/C#N)cc1 [Example 18, 2-[4-((E)-2-Cyano-ethenesulfonyl)-phenyl]-N-(4-fluoro-benzyl)-isobutyramide] | > 85% | 50 to 85% | 50 to 85%
N#C/C=C/S(=O)(=O)c1ccc(C2(C(=O)O)CCOCC2)cc1 [Example 82, 4-[4-((E)-2-Cyano-ethenesulfonyl)-phenyl]-tetrahydro-pyran-4-carboxylic acid] | < 10% | < 10% | 
Cc1ccc2oc(COc3ccc(S(=O)(=O)/C=C/C#N)cc3C(C)(C)C)nc2c1 [Example 81, (E)-3-[3-tert-Butyl-4-(5-methyl-benzoxazol-2-ylmethoxy)-benzenesulfonyl]-acrylonitrile] | > 85% | 50 to 85% | 
N#C/C=C/S(=O)(=O)c1ccc(C2(C(=O)NCc3ccc(F)cc3)CC2)cc1 [Example 67, 1-[4-((E)-2-Cyano-ethenesulfonyl)-phenyl]-cyclopropanecarboxylic acid 4-fluoro-benzylamide] | > 85% | 50 to 85% | 
COc1cccc(NC(=O)C(C)(C)c2ccc(S(=O)(=O)/C=C/C#N)cc2)c1 [Example 25, 2-[4-((E)-2-Cyano-ethenesulfonyl)-phenyl]-N-(3-methoxy-phenyl)-isobutyramide] | > 85% | 50 to 85% | 50 to 85%
